Measured values reported in patent US8877938B2, “Compounds containing S-N-valeryl-N-{[2′-(1H-tetrazole-5-yl)-biphenyl-4-yl]-methyl}-valine and (2R,4S)-5-biphenyl-4-yl-4-(3-carboxy-propionylamino)-2-methyl-pentanoic acid ethyl ester moieties and cations” (Novartis Pharmaceuticals Corporation, priority 2005, dated 2014).
Like-named read-outs stand apart in the source and are kept apart here.

Experiments:
[1] = target: neutral endopeptidase 24.11 (NEP) (Rattus norvegicus, UniProt P07861); settings: for NEP inhibition in vivo, as reflected by potentiation of plasma ANPir: oral administration, conscious Sprague-Dawley rats infused with exogenous ANP
Description: (§1) Representative studies are carried out with trisodium [3-((1S,3R)-1-biphenyl-4-ylmethyl-3-ethoxycarbonyl-1-butylcarbamoyl)propionate-(S)-3′-methyl-2′- pentanoyl{2″-(tetrazol-5-ylate)biphenyl-4′-ylmethyl}amino)butyrate] hemipentahydrate, e.g. applying the following methodology: • The antihypertensive and neutral endopeptidase 24.11 (NEP)-inhibitory activities of trisodium [3-((1S,3R)-1-biphenyl-4-ylmethyl-3-ethoxycarbonyl-1-butylcarbamoyl)propionate-(S)-3′-methyl-2′-(pentanoyl{2″-tetrazol-5-ylate)biphenyl-4′-ylmethyl}amino)butyrate] hemipentahydrate is assessed in conscious rats. The blood pressure-lowering effect is evaluated in double-transgenic rats (dTGRs) that overexpress both human renin and its substrate, human angiotensinogen (Bohlender, et al, High human renin hypertension in transgenic rats. Hypertension; 29(1 Pt 2):428-34, 1997). […] The NEP-inhibitory effect of trisodium [3-((1 S,3R)-1-biphenyl-4-ylmethyl-3-ethoxycarbonyl-1-butylcarbamoyl)propionate-(S)-3′-methyl-2′-(pentanoyl{2″-(tetrazol-5-ylate)biphenyl-4′-ylmethyl}amino)butyrate] hemipentahydrate is determined in conscious Sprague-Dawley rats infused with exogenous atrial natriuretic peptide (ANP). Potentiation of plasma ANP levels is used as an index of NEP inhibition in vivo. In both models, trisodium [3-((1S,3R)-1-biphenyl-4-ylmethyl-3-ethoxycarbonyl-1-butylcarbamoyl)propionate-(S)-3′-methyl-2′-(pentanoyl{2″-(tetrazol-5-ylate)biphenyl-4′-ylmethyl}amino)butyrate] hemipentahydrate is administered orally as a powder in gelatin mini capsules. […] Antihypertensive Effect In Vivo
Rat ANP(1-28) is infused intravenously at a rate of 450 ng/kg/min in conscious, chronically cannulated, male Sprague-Dawley rats. After one hour of infusion, rats are randomly assigned to one of six groups: untreated control, vehicle (empty capsule) control, or one of four doses of drug (2, 6, 20, or 60 mg/kg, p.o.). ANP infusion is continued for an additional eight hours. Blood samples are collected for measuring plasma ANPir by a commercial enzyme immunoassay kit at −60 min (i.e., before initiating ANP infusion), −30 min (after 30 min of ANP infusion), 0 min (“baseline”; after 60 min of ANP infusion but before dosing with drug or its vehicle), and at 0.25, 0.5,1, 2, 3, 4, 5, 6, 7, and 8 hr post-dosing.

[2] = system: double-transgenic rats (dTGRs) that overexpress both human renin and its substrate, human angiotensinogen
Description: as §1
The dTGRs are instrumented with radiotelemetry transmitters for continuous measurement of arterial blood pressure and heart rate. Animals are randomly assigned to vehicle (empty capsule) or treatment (at 2, 6, 20 or 60 mg/kg, p.o.) groups.

[3] = 2, 6, 20 or 60 mg/kg, p.o., rat ANP(1-28) infused i.v. at 450 ng/kg/min

Sequence of neutral endopeptidase 24.11 (NEP) (P07861 whole entry, the tested form may be a part): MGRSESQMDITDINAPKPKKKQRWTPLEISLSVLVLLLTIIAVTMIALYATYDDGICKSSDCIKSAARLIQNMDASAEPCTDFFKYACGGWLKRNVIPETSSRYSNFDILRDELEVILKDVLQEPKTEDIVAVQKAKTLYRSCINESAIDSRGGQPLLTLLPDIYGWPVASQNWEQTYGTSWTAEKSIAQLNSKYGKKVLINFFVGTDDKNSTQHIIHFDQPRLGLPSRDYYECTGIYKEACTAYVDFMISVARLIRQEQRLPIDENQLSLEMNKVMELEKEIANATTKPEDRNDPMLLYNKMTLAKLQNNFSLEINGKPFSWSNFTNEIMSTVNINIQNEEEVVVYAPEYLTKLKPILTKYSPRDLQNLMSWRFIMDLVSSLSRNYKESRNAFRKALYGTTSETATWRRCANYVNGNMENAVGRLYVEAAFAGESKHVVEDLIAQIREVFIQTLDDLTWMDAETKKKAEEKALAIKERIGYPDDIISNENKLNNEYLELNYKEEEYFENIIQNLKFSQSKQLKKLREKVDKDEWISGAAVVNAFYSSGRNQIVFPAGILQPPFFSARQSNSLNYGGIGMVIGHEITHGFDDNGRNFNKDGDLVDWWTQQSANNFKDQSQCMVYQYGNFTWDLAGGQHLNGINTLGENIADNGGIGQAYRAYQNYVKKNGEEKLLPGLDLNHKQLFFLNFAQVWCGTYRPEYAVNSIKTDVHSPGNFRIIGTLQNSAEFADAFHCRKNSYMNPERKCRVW

With “trisodium [3-((1S,3R)-1-biphenyl-4-ylmethyl-3-ethoxycarbonyl-1-butylcarbamoyl)propionate-(S)-3′-methyl-2′-(pentanoyl{2″-(tetrazol-5-ylate)biphenyl-4′-ylmethyl}amino)butyrate] hemipentahydrate” the “plasma ANPir” value [1, 3] was “dose-dependently augments ANPir”, the “time to augmentation of plasma ANPir after dosing” value [1, 3] was no more than 15 min and the “NEP inhibition in vivo, as reflected by potentiation of plasma ANPir” value [1] was “rapidly and dose-dependently inhibits NEP with a long duration of action”. For the same substance, the “NEP inhibition in vivo, as reflected by potentiation of plasma ANPir” value ([1]; listed as LCZ696) was “rapidly and dose-dependently inhibited NEP with a long duration of action”, the “mean arterial pressure (MAP)” value ([2]; 2, 6, 20 or 60 mg/kg, p.o., baseline 24-hr MAP approximately 170-180 mmHg) was “dose-dependently reduces MAP” and the antihypertensive effect ([2]; oral administration, conscious dTGRs, a rat model of fulminant hypertension) was “dose-dependent and long-lasting antihypertensive effect”. For the same substance, the “MAP, difference from vehicle controls” value ([2]; three highest doses (of 2, 6, 20, 60 mg/kg, p.o.)) was “significantly different from the vehicle controls”.
